Laboratory results: ChEMBL document CHEMBL6121057, “Discovery of an Orally Bioavailable STING Inhibitor with In Vivo Anti-Inflammatory Activity in Mice with STING-Mediated Inflammation” (J Med Chem, 2025)
The source made the active and inactive calls. No cut-off for these calls is given here.

How the values were obtained:
[1] = target: T1, Stimulator of interferon genes protein (Mus musculus) (UniProt Q3TBT3); experiment: In vivo inhibition of CMA-induced STING activation in C57BL/6JNifdc mouse model assessed as decrease in serum INF-beta level administered orally pretreated for 2 hrs followed by CMA treatment for 4 hrs by ELISA; assay type: functional, organism-based; conditions: dose 3-30 mg/kg, route po, time 6.0 hrs
T1 sequence (whole entry): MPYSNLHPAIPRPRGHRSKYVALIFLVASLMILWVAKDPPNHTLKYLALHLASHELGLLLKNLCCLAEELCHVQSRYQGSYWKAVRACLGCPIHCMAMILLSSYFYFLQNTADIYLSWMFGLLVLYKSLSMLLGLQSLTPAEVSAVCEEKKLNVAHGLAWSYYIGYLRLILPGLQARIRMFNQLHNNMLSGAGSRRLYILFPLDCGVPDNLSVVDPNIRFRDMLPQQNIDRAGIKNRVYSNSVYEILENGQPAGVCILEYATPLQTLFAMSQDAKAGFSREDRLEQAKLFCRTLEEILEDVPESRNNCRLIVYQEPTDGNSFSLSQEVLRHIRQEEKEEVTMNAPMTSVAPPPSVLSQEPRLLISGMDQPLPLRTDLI

[2] = target: T1, Stimulator of interferon genes protein (Mus musculus); experiment: In vivo inhibition of CMA-induced STING activation in C57BL/6JNifdc mouse model assessed as decrease in serum IL-6 level administered orally pretreated for 2 hrs followed by CMA treatment for 4 hrs by ELISA; assay type: functional, organism-based; conditions: dose 3-30 mg/kg, route po, time 6.0 hrs
[3] = target: T1, Stimulator of interferon genes protein (Mus musculus); experiment: Inhibition of STING in mouse L929 cells assessed as decrease in IL-6 mRNA level preincubated for 1 hr followed by 2',3'-cGAMP stimulation for 6 hrs by real-time PCR analysis; assay type: cell-based; conditions: dose 0.1-1 µM, time 7.0 hrs
[4] = target: T1, Stimulator of interferon genes protein (Mus musculus); experiment: Inhibition of STING phosphorylation in mouse L929 cells at 0.1 to 1 uM preincubated for 1 hr followed by 2',3'-cGAMP stimulation for 6 hrs by Western blot analysis; assay type: cell-based; conditions: dose 0.1-1 µM, time 7.0 hrs
[5] = Acute toxicity in male C57BL/6JNifdc mouse assessed as change in spleen weight at 500 mg/kg, po administered everyday for 14 days; assay type: organism-based; conditions: in vivo, 336 h, time 14 day
[6] = Metabolic stability in human liver microsomes assessed as intrinsic clearance; assay type: ADME, Microsome; conditions: read-out: CLH
[7] = AUC (0 to t) in Sprague-Dawley rat at 10 mg/kg, po measured upto 60 mins by LC-MS/MS analysis; assay type: ADME, organism-based; conditions: in vivo
[8] = target: T1, Stimulator of interferon genes protein (Mus musculus); experiment: In vivo inhibition of STING activation in Trex1-KO mouse assessed as decrease in Irf7 mRNA level in heart at 10 mg/kg, po qd treated for 2 weeks by quantitative PCR analysis; assay type: functional, organism-based
[9] = Half life in Sprague-Dawley rat at 2 mg/kg, iv measured upto 60 mins by LC-MS/MS analysis; assay type: ADME, organism-based; conditions: in vivo
[10] = target: T1, Stimulator of interferon genes protein (Mus musculus); experiment: In vivo inhibition of STING activation in Trex1-KO mouse assessed as decrease in Isg15 mRNA level in tongue at 10 mg/kg, po qd treated for 2 weeks by quantitative PCR analysis; assay type: functional, organism-based
[11] = Oral bioavailability in Sprague-Dawley rat at 10 mg/kg measured […] by LC-MS/MS analysis; assay type: ADME, organism-based; conditions: in vivo
[12] = target: T1, Stimulator of interferon genes protein (Mus musculus); experiment: In vivo inhibition of STING activation in Trex1-KO mouse assessed as decrease in Cxcl10 mRNA level in heart at 10 mg/kg, po qd treated for 2 weeks by quantitative PCR analysis; assay type: functional, organism-based
[13] = target: T1, Stimulator of interferon genes protein (Mus musculus); experiment: Inhibition of STING in mouse L929 cells assessed as decrease in ISG15 mRNA level preincubated for 1 hr followed by 2',3'-cGAMP stimulation for 6 hrs by real-time PCR analysis; assay type: cell-based; conditions: dose 0.1-1 µM, time 7.0 hrs
[14] = target: Stimulator of interferon genes protein (Homo sapiens) (UniProt Q86WV6); experiment: Inhibition of STING in human THP-1 cells assessed as decrease in IFNB mRNA level preincubated for 1 hr followed by 2',3'-cGAMP stimulation for 6 hrs by real-time PCR analysis; assay type: cell-based; conditions: dose 0.1-1 µM, time 7.0 hrs
[15] = target: Stimulator of interferon genes protein (Homo sapiens) (UniProt Q86WV6); experiment: Inhibition of STING in human THP-1 cells assessed as decrease in p-p65 level at 0.1 to 1 uM preincubated for 1 hr followed by 2',3'-cGAMP stimulation for 3 hrs by Western blot analysis; assay type: cell-based; conditions: dose 0.1-1 µM, time 4.0 hrs
[16] = target: T1, Stimulator of interferon genes protein (Mus musculus); experiment: In vivo inhibition of STING activation in Trex1-KO mouse assessed as decrease in Cxcl10 mRNA level in muscle at 10 mg/kg, po qd treated for 2 weeks by quantitative PCR analysis; assay type: functional, organism-based
[17] = target: Stimulator of interferon genes protein (Homo sapiens) (UniProt Q86WV6); experiment: Inhibition of STING in human THP-1 cells assessed as decrease in IL-6 mRNA level preincubated for 1 hr followed by 2',3'-cGAMP stimulation for 6 hrs by real-time PCR analysis; assay type: cell-based; conditions: dose 0.1-1 µM, time 7.0 hrs
[18] = target: T1, Stimulator of interferon genes protein (Mus musculus); experiment: Inhibition of STING in mouse L929 cells assessed as decrease in IFNB mRNA level preincubated for 1 hr followed by 2',3'-cGAMP stimulation for 6 hrs by real-time PCR analysis; assay type: cell-based; conditions: dose 0.1-1 µM, time 7.0 hrs
[19] = target: T1, Stimulator of interferon genes protein (Mus musculus); experiment: In vivo inhibition of STING activation in Trex1-KO mouse assessed as decrease in Isg15 mRNA level in muscle at 10 mg/kg, po qd treated for 2 weeks by quantitative PCR analysis; assay type: functional, organism-based
[20] = Metabolic stability in human liver microsomes assessed as half life; assay type: ADME, Microsome
[21] = Half life in Sprague-Dawley rat at 10 mg/kg, po measured upto 60 mins by LC-MS/MS analysis; assay type: ADME, organism-based; conditions: in vivo
[22] = target: T1, Stimulator of interferon genes protein (Mus musculus); experiment: Inhibition of STING in mouse L929 cells assessed as decrease in pIRF3 level at 0.1 to 1 uM preincubated for 1 hr followed by 2',3'-cGAMP stimulation for 6 hrs by Western blot analysis; assay type: cell-based; conditions: dose 0.1-1 µM, time 7.0 hrs
[23] = Acute toxicity in C57BL/6JNifdc mouse assessed as behavioural abnormality at 2000 mg/kg, po administered as single dose measured for 14 days; assay type: organism-based; conditions: in vivo, 336 h, time 14 day
[24] = target: T1, Stimulator of interferon genes protein (Mus musculus); experiment: In vivo inhibition of STING activation in Trex1-KO mouse assessed as decrease in serum IFN-beta level at 10 mg/kg, po qd treated for 2 weeks by ELISA; assay type: functional, organism-based
[25] = target: T1, Stimulator of interferon genes protein (Mus musculus); experiment: In vivo inhibition of STING activation in Trex1-KO mouse assessed as decrease in Isg15 mRNA level in heart at 10 mg/kg, po qd treated for 2 weeks by quantitative PCR analysis; assay type: functional, organism-based
[26] = target: T1, Stimulator of interferon genes protein (Mus musculus); experiment: Inhibition of STING in mouse L929 cells assessed as decrease in pTBK1 level at 0.1 to 1 uM preincubated for 1 hr followed by 2',3'-cGAMP stimulation for 6 hrs by Western blot analysis; assay type: cell-based; conditions: dose 0.1-1 µM, time 7.0 hrs

Stimulator of interferon genes protein (Homo sapiens), sequence (Q86WV6 whole entry): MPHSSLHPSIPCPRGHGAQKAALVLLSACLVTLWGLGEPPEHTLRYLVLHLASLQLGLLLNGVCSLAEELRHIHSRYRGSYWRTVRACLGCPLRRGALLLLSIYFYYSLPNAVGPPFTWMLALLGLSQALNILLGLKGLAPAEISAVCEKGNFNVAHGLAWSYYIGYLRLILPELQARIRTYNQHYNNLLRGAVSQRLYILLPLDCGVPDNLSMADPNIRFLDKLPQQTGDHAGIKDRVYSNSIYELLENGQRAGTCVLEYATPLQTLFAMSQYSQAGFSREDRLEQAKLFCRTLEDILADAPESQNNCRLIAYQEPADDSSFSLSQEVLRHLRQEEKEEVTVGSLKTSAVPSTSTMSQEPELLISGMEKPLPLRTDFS

SMILES: O=C(Nc1ccc(C2CCC(F)(F)CC2)cc1)Nc1c[nH]c2ccc(Cl)cc12
- inhibition [1]: Dose-dependent-effect
- inhibition [2]: Dose-dependent-effect
- inhibition [3]: Dose-dependent-effect
- inhibition [4]: Active
- Activity [5]: Toxic
- CLint scaled [6]: 28.5 mL/min/kg
- AUC(0-t) at 1 h [7]: 1020 ng·h/mL
- inhibition [8]: Active
- half-life [9]: 5.3 h
- inhibition [10]: Active
- bioavailability [11]: 15%
- inhibition [12]: Active
- inhibition [13]: Dose-dependent-effect
- inhibition [14]: Dose-dependent-effect
- inhibition [15]: Active
- inhibition [16]: Active
- inhibition [17]: Dose-dependent-effect
- inhibition [18]: Dose-dependent-effect
- inhibition [19]: Active
- half-life [20]: 0.52 h
- half-life [21]: 4.4 h
- inhibition [22]: Active
- Activity [23]: Non-toxic
- inhibition [24]: Active
- inhibition [25]: Active
- inhibition [26]: Active
